Assay results as given in patent US20070259428A1, “Use of Cloud Point System in Biotransformation” (Shanghai Health Creation Center for Biopharmaceutical R&D …, priority 2003, published 2007).

Assays:
[1] = cited from earlier work
[2] = system: Mycobacterium sp. NRRL B 3683; assay: Screening of nonionic surfactant: biocompatibility or potential toxicity to the microorganism, by final ADD concentration in surfactant-amended transformation medium; type: cell-based; conditions: high concentration of surfactant (2.0 g/100 ml), 28° C., 7 days
Method: Microbial strain, Mycobacterium sp. NRRL B 3683, is preserved in Shanghai Health Creation Center for Biopharmaceuticals R&D. It is able to remove the side chain of cholesterol, giving out ADD and 4-AD as final products, at a ratio of ca. 10:1.
Transformation medium (100 ml): (NH4)SO4 1.0 g, Na2HPO4 0.45 g, KH2PO4 0.34 g, MgSO4.7H2O 0.2 g, cholesterol 0.5 g, nonionic surfactant 2.0 g
The seed culture was grown aerobically at 28° C. at 220 r/min for 3 days with 20 ml of medium in a 250 ml Erlenmeyer flask. The seed culture was then transferred by 10% into 22 ml of transformation medium in a 250 ml Erlenmeyer flask, which was then shaken at 28° C. at 220 r/min for 7 days. A portion of the well-mixed transformation culture broth was withdrawn for analysis.
1 ml of sample was withdrawn from culture broth and extracted with 4 ml of methanol for 2 hrs, followed by centrifugation. 0.8 ml of supernatant was taken for HPLC analysis. Hypesil C18 column using methanol:water (4:1) as mobile phase, flow rate of 0.7 ml/min, and detection wavelength at 254 nm were applied.
For selecting appropriate medium of microbial transformation, biocompatibility or potential toxicity of surfactant to microorganism is critical.

[3] = cloud point; cited from earlier work
[4] = footnote a: mg/L; cited from earlier work
[5] = TLC analysis of distribution of substrate and product in CPS; type: physicochemical; conditions: FIG. 4
Method: TLC analysis was performed to determine the distribution of substrate and products in CPS, using Silica gel 60 F254 (Merck) high-performance thin layer chromatography plates which is developed in Chloroform:ether (1:3) followed by soaking in phosphornolybdic acid solution and drying by heat. Substrate and products were separated, with their Rf values of cholesterol, a-AD and ADD being 0.62, 0.47, and 0.42, respectively.
By TLC analysis, the partition of substrate and product in CPS is viewed in FIG. 4. […] Partition of cells between the two phases is determined with hemocytometry. Its partition coefficient between the coacervate phase and the dilute phase is roughly 10, indicating the surface of Mycobacterium sp. is rather hydrophobic. This is in compliance with the report that Mycobacterium is a hydrophobic microbe.

Q: With `CC(C)CCC[C@@H](C)[C@H]1CC[C@H]2[C@@H]3CC=C4C[C@@H](O)CC[C@]4(C)[C@H]3CC[C@]12C` [cholesterol] as the compound, how does the solubility in water [1] read?
A: below 1 μM

Q: Which “biocompatibility with the microorganism” value [2] does the source give for Triton X-100 here?
A: incompatible with the microorganism

Q: What about the CP [3] of the same compound?
A: 64 °C

Q: With Tween 60 as the compound, how does the CMC [4] read?
A: 27^a mg/L

Q: Which CMC [4] does the source give for Tween 40 here?
A: 29^a mg/L

Q: For `C[C@]12C=CC(=O)C=C1CC[C@@H]1[C@@H]2CC[C@]2(C)C(=O)CC[C@@H]12` [ADD], which “partition in CPS (dilute phase vs coacervate phase)” value [5] is on record?
A: based in the coacervate phase
